The values below come from US10858364B2, “Imidazopyrazine inhibitors of Bruton's tyrosine kinase” (Acerta Pharma B.V., priority 2016, dated 2020).

Series [1] concerns the target T1, BTK (Homo sapiens (Human), UniProt Q06187). The experiment in a line: DiscoveRx Kd dose response, BTK. It counts as binding. How it is done: (§1) Kinase profiling was performed with M27 was done at DiscoveRx at a single dose of 1 μM on all available kinases (KINOMEscan). The overall kinase selectivity score is in Table 6. […] Kinases inhibited >65% at 1 μM for M27 were followed up with a dose response at DiscoveRx. The M27 had IC50 values <1 μM for almost the same set of kinases with exception of TXK, but with additional inhibition of BRK (PTK6).
Target sequence in this assay (Q06187 whole entry): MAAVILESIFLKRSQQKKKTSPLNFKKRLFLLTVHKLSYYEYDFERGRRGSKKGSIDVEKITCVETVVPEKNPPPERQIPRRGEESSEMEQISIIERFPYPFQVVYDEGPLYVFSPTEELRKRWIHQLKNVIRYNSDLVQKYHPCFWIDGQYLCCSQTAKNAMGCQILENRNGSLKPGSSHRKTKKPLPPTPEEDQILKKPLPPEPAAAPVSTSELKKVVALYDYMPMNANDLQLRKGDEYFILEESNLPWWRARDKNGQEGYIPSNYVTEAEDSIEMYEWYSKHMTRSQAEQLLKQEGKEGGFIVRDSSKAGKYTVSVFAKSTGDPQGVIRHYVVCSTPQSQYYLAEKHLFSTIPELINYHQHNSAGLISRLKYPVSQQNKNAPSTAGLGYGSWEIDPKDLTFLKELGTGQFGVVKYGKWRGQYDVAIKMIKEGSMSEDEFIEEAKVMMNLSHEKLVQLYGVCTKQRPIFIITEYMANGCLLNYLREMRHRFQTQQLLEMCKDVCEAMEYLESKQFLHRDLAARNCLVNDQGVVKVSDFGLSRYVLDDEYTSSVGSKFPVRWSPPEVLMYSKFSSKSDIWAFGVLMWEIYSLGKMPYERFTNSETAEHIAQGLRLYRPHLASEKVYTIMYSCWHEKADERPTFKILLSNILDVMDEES

Series [2] concerns the target CYP1A2 (Homo sapiens (Human), UniProt P05177).
Series [3] has as its target ERBB4 (Homo sapiens (Human), UniProt Q15303). The experiment in a line: DiscoveRx Kd dose response, ERBB4. It counts as binding. The procedure: as §1
Series [4] concerns the target T1, BTK. Kind of series: BTK inhibition in a biochemical assay, relative to acalabrutinib.
Target sequence in this assay (Q06187 whole entry, species assumed): as the sequence (Q06187 whole entry) above
The target in series [5] is ERBB2 (Homo sapiens (Human), UniProt P04626). Kind of series: ERBB2 Z'-LYTE kinase assay. The series is classed as biochemical. Particulars: 1 h pre-incubation, Km ATP. The procedure: (§2) BMX, TXK, EGFR, ERBB2, ERBB4, JAK3, BLK kinase activity was measured using the Z′-LYTE assay at Thermo Fisher. A 10-point dose response (final concentration in assay ranged from 10 μM to 0.5 nM in 3-fold dilution per dilution step) was generated with 1 h incubation of the test compound with the kinase prior to initiation of the kinase reaction by the addition of ATP. ATP concentration in the assay was Km ATP for the different kinases. IC50 values are determined by curve fitting of the experimental results at Thermo Fisher.
Sequence of ERBB2 (P04626 23-1255): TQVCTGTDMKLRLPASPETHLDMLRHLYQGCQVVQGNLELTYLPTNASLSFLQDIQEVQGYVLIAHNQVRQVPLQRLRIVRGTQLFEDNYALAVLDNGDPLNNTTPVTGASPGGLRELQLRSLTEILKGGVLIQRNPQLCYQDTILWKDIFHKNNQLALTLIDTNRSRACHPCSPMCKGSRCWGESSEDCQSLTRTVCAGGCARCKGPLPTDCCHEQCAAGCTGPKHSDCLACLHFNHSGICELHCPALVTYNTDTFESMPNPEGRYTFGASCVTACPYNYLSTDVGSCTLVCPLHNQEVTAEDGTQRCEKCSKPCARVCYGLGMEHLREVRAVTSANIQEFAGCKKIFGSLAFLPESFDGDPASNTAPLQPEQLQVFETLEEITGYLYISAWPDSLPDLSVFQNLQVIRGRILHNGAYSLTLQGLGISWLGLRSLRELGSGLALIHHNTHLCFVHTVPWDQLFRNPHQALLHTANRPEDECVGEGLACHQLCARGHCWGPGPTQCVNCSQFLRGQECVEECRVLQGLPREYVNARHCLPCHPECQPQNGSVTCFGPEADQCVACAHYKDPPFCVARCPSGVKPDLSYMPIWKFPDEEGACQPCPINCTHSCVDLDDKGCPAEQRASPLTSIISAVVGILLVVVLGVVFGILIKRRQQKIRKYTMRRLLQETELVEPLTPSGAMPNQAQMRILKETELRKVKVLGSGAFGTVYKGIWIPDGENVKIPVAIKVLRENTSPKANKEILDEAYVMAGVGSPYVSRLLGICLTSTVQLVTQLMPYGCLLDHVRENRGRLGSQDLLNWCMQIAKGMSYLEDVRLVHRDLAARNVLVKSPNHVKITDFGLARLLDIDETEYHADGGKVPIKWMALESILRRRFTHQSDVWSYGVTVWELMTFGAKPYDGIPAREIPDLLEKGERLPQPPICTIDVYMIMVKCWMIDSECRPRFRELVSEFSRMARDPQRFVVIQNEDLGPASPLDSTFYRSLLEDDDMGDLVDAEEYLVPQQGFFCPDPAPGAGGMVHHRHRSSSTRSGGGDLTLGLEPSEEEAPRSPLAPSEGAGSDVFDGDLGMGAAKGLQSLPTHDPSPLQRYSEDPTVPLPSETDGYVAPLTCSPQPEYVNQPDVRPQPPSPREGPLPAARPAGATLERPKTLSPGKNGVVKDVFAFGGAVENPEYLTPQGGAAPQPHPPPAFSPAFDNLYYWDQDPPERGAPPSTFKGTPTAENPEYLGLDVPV

For series [6], the target named is MEK5 (Homo sapiens (Human), UniProt Q13163). The experiment in a line: DiscoveRx Kd dose response, MEK5. The series is classed as binding. The procedure:
as §1

For series [7], the target named is TXK (Homo sapiens (Human), UniProt P42681). The experiment in a line: DiscoveRx Kd dose response, TXK. The series is classed as binding. How it is done: as §1
Sequence of TXK (P42681 whole entry): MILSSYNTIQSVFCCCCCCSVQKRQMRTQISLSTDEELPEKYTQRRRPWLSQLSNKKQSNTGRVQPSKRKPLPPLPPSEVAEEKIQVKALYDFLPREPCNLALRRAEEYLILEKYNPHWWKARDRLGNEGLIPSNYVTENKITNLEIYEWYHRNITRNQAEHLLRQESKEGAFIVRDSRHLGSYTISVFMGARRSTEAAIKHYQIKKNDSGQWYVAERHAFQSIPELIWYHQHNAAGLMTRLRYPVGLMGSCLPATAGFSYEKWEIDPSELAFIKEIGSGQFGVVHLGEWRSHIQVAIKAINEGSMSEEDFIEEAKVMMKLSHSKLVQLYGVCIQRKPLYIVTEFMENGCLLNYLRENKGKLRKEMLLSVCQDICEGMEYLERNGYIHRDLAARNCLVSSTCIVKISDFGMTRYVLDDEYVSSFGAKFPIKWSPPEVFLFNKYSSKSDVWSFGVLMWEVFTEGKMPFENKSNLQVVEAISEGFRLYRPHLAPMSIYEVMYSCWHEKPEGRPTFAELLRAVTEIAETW
For series [8], the system named is anti-IgM-induced CD69. The experiment in a line: Human PBMC anti-IgM-induced CD69 assay. Conditions: CD19+ B cells, 2 h compound, 18 h anti-IgM, read-out: hPBMC: anti-IgM-induced CD69 EC50. The series is classed as cell-based. The procedure:
Whole blood was collected in heparin-coated Vacutainer tubes (BD Biosciences, San Jose, Calif.) and used for isolation of PBMCs using Ficoll-Hypaque (Pharmacia, Uppsala, Sweden). Isolated PBMCs were cryopreserved in 90% FCS/10% DMSO until later use.
Cells from cryogenic storage were thawed in a 37° C. water bath, diluted with RPMI/1% FCS, washed 2 times, and then plated at 2×10^5 cells per well in RPMI/10% FCS in 96 well plates.
Serial dilutions […] from 10 mM to 316 nM of test compounds are made in 100% DMSO, followed by a 100-fold dilution into RPMI/1% FCS. For each well, 10 μL was then transferred to the deep well plate containing 90 μL of PBMC cells. […]
Following stimulation with anti-IgM, PBMCs were incubated on ice for 30 min with anti-CD69-FITC, anti-CD19-BV421 (BD Biosciences #555530 and #562440, respectively) and 7AAD (Life Technologies # A1310). Flow cytometry was performed and fluorescence values were obtained from the CD69-FITC channel in CD19+ gated life B cells. EC50 values are determined by curve fitting of the experimental results using GraphPad Prism.
PBMC assay: Cryopreserved PBMC were thawed, washed, and suspended at 2×10^5 cells/well in RPMI+10% FBS in 96-well plates. […] EC50 values were determined by curve fitting of the experimental results using Dotmatics. […]

Series [9] has as its target JAK3 (Homo sapiens (Human), UniProt P52333). Kind of series: JAK3 Z'-LYTE kinase assay. The series is classed as biochemical. Conditions: 1 h pre-incubation, Km ATP. The procedure:
as §2

Series [10] has as its target TEC (Homo sapiens (Human), UniProt P42680). The experiment in a line: TEC LanthaScreen assay. The series is classed as binding. Particulars: 2h incubation. The procedure:
TEC enzyme activity is measured using the LanthaScreen assay from ThermoFisher as outlined below.
TEC enzyme (LifeTech # PV3269) and Eu-anti-HIS antibody (Invitrogen # PV5596) are mixed and diluted in kinase buffer (50 mM Hepes pH 7.5+10 mM MgCl2+1 mM EGTA+0.01% Brij-35) to 3 and 6 nM, respectively. Final concentration in the assay for enzyme and antibody are 1 and 2 nM, respectively.
Tracer (Kinase Tracer 178, Invitrogen # PV5593) is diluted in Kinase buffer to 3 nM. Final concentration in the assay is 1 nM.
Serial dilutions log 10 from 1 mM to 3.16 nM of test compounds are made in 100% DMSO. The dilutions in DMSO are then diluted 33-fold in Kinase buffer (50 mM Hepes pH 7.5+10 mM MgCl2+1 mM EGTA+0.01% Brij-35).
The assay is performed as follows: 5 μL/well of TEC enzyme and EU-anti-His antibody dilution is mixed with 5 μL/well tracer dilution and 5 μL/well of compound dilution in Kinase buffer. Final compound concentration in the assay ranged from 10 μM to 0.316 nM, with 1% DMSO final concentration in assay. Following a 2h incubation at room the TR-FRET signal at 615 nm and 665 nm is read. The ratio 665/615 was used to calculate values expressed as percentage of the difference in readout (S/N) of the controls with and without Tracer. IC50 values were determined by curve fitting of the experimental results in Dotmatics.
Background: TR-FRET usually uses a lanthanide donor and a delayed reading to cut background.

Sequence of CYP1A2 (P05177 whole entry): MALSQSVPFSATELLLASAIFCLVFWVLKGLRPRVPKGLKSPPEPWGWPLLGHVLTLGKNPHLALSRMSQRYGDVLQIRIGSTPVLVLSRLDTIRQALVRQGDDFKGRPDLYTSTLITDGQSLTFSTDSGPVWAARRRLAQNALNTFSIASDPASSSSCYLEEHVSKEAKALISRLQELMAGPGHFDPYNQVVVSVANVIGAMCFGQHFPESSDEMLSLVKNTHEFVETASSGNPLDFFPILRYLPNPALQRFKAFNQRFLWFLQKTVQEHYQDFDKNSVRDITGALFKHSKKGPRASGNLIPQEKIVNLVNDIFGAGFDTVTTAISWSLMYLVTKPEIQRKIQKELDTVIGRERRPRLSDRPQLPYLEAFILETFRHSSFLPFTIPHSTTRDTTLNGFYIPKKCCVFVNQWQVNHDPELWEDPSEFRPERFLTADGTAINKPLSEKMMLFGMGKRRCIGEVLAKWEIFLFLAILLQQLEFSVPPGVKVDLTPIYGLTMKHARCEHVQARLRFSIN
Sequence of TEC (P42680 whole entry): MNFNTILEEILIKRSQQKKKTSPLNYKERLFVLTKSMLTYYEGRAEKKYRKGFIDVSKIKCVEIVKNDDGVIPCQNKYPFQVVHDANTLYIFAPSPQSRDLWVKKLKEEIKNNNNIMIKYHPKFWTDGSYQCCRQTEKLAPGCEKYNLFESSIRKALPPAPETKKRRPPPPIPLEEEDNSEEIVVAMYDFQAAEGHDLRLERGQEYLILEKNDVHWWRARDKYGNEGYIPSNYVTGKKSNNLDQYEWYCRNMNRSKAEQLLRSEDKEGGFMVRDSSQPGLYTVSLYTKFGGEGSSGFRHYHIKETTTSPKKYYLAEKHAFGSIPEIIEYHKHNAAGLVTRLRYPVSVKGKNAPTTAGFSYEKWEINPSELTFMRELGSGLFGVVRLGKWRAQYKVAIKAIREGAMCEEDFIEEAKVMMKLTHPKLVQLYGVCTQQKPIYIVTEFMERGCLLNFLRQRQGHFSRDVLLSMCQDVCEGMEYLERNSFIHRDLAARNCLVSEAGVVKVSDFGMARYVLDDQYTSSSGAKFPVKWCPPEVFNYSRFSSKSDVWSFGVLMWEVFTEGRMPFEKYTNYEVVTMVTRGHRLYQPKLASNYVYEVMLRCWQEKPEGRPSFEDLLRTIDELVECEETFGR
Sequence of MEK5 (Q13163 whole entry): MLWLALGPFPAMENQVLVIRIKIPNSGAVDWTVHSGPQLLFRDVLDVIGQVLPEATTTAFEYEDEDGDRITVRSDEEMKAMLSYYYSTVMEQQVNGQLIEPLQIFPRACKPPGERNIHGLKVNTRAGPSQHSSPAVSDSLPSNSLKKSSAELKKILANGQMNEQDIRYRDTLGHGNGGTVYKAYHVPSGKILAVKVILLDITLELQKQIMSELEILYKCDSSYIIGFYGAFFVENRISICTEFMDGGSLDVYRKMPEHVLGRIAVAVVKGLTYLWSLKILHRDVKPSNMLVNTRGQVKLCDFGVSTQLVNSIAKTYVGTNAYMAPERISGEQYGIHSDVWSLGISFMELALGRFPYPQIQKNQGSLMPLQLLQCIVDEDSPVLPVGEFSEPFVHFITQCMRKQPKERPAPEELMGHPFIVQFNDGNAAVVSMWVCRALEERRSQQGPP

Usually Kd stands for the free concentration of one partner at which half of the binding sites on the other are occupied at equilibrium, for simple one-to-one binding. A high value points to weaker binding. For orientation: IC50 means the midpoint of a concentration-inhibition curve. Read a low IC50 as greater potency. By EC50 is commonly meant the concentration giving half of the maximal effect. For `CC#CC(=O)NCCCC(=O)c1nc(-c2ccc(C(=O)Nc3ccccn3)cc2)c2c(N)nccn12` [Formula (I), 4-(8-amino-3-(4-(but-2-ynamido)butanoyl)imidazo[1,5-a]pyrazin-1-yl)-N-(pyridin-2-yl)benzamide], the Kd in [1] was determined as 29 nM; in [3], 970 nM; in series [6], 69 nM; in [7] it was 1100 nM. In addition, the CYP1A2 inhibition result in series [2] is given as “does not inhibit”. Also, in series [4], the “less potent than acalabrutinib with regard to BTK inhibition” value is listed as “approximately 50%”. Further, the results for the IC50 in [5], in [9] and in series [10] were 552 ± 166 nM, more than 10000 nM and 345 ± 34 nM, respectively. Moreover, the EC50 in series [8] came to 26 ± 16 nM.
On to `CC#CC(=O)NCCCC(=O)c1nc(-c2ccc(C(=O)Nc3ccccn3)c(OC)c2)c2c(N)nccn12` [Formula (II), 4-(8-amino-3-(4-(but-2-ynamido)butanoyl)imidazo[1,5-a]pyrazin-1-yl)-2-methoxy-N-(pyridin-2-yl)benzamide], for which, in [8], the EC50 was found to be 19 ± 6 nM.
